≈ marks a conversion by molar mass, not a printed value. Read-outs that look alike come from different tables or passages of the source.
How the values were obtained:
[1] = target: NS3-NS4A protease of HCV genotype-3a (Hepatitis C virus genotype 3a, UniProt Q81258); assay: FRET assay of NS3-NS4A protease activity with depsipeptide substrate; assay type: biochemical; design: Activity, Slope trial 1st / Activity, Slope trial 2nd / Activity, Slope trial 3rd: unit not given here
Protocol: For measuring the protease activity, a FRET assay was performed using a depsipeptide substrate, Ac-Asp-Glu-Asp-(EDANS)-Glu-Glu-Abu-ψ-[COO]-Ala-Ser-Lys(DABCYL)-NH2 (AnaSpec,US). The fluorescence signal generated upon cleavage of the depsipeptide substrate by the NS3 protease domain was continuously recorded using excitation and emission wavelengths of 355 nm and 510 nm, respectively, and a fluorescence microplate reader (TECAN, US). In the case of the full-length NS3 protease, the reaction buffer (50 mM HEPES, pH 7.5, 0.4% Triton X-100, 10 mM DTT (Thermo Fisher Scientific), 3% DMSO (Thermo Fisher Scientific), and 40% glycerol) was pre-incubated (at 30 °C for 10 min) with 25 µM of a synthetic peptide, […] (purchased from LifeTein LLC, US), representing the core of the NS4A cofactor required for the catalytic activity. For the FRET assay, 1 nM of the full-length NS3 protease was used. In the case of NS3-NS4A, the protein (0.5 nM) was incubated in the reaction buffer at 30 °C for 10 min (without the synthetic peptide). The reaction was initiated by the addition of the substrate (10 µL) in a two-fold serial dilution up to a concentration of 2 µM. Reaction wells without the substrate were used as negative controls. For correction of the inner filter effect, a previously described procedure was followed. Kinetic parameters (such as kcat, Km, and kcat/Km) were calculated using the Michaelis–Menten equation. Data were fitted to the equation by non-linear regression using the GraphPad Prism® software (version 7.04, GraphPad Prism®, Inc., USA).
For validation of the FRET assay, commercially available inhibitors (asuanaprevir, ciluprevir, danoprevir, and telaprevir (purchased from AdooQ® Bioscience, US) were used to inhibit the activity of the target enzyme (NS3-NS4A protease of HCV genotype-3a), as described previously. Briefly, 1 µM of the depsipeptide substrate was added to the protein, pre-incubated with a given inhibitor, and fluorescence measurements were recorded for 20, 30, or 60 min using 355 nm and 510 nm as excitation and emission wavelengths, respectively. The IC50 value, representing the half-maximal inhibitory concentration, of each commercial inhibitor was calculated using the GraphPad Prism® software (version 7.04, GraphPad Prism®, Inc., USA). The experiment was performed in triplicates, and the average value obtained was considered as the IC50 value.
Reaction mixtures (300 µL) were prepared in the assay buffer (50 mM HEPES, pH 7.5, 0.4% Triton X-100, 10 mM DTT, and 40% glycerol). For initial screening, 3.33 mg of the plant extract was dissolved in 1 mL DMSO, and was transferred to the reaction buffer such that the final concentration of DMSO was 3%. The reaction was initiated by adding 0.5 nM NS3-NS4A protease, and the released RET S1 FRET substrate was monitored using a fluorescence microplate reader (TECAN). Reaction mixtures (also containing 3% DMSO) without any plant extract were used for recording blank measurements. The background fluorescence contributed by the plant extract was also recorded. For calculation of the calibration curve, spiking with known amounts (0.25 µM, 0.5 µM, 1 µM, and 2 µM) of the free FRET substrate (RET S1) was made while keeping the reaction mixture at the same volume, containing all the constituents (the plant extract, the assay buffer as well as the enzyme). Slope of the curve was correlated with that obtained from free FRET substrate concentrations without any plant extract as well as the substrate. Initial reaction rates were calculated, and the percentage (%) enzyme inhibition was calculated using the equation: 100 x [a-b/a] where “a” refers to the fluorescence value generated by the reaction mixture only (without the plant extract) and “b” is the solution fluorescence in the presence of the plant extract. […]

HCV NS3 protease = system: HCV NS3 protease; design: method as in earlier work; conditions: ref [49], [50]; Table S3 ref [1], [2]; cited from earlier work
[2] = target: NS3 protease domain of HCV genotype 3a fused to the cognate NS4A cofactor (NS3-NS4A) (hepatitis C virus genotype 3a)
[3] = FRET assay validation, 1 µM depsipeptide substrate, triplicates, read-out: IC50 value (commercial inhibitors) (converted)

Chain of NS3-NS4A protease of HCV genotype-3a (Q81258 1033-1213, other chains not shown): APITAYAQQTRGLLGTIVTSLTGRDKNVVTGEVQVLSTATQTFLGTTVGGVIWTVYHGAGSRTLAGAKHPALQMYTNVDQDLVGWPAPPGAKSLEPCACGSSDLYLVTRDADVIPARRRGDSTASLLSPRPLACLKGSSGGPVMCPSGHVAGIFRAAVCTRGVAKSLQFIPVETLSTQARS

Compound	IC50 [1, 3] [nM]	IC50 value [reported in the literature] (HCV NS3 protease) [µg/mL]	Activity, Slope trial 1st ([1]; inhibitor conc. 1.3717 nM)	Activity, Slope trial 2nd ([1]; inhibitor conc. 1.3717 nM)	Activity, Slope trial 3rd ([1]; inhibitor conc. 1.3717 nM)	Average Slope ([1]; inhibitor conc. 1.3717 nM)	Activity, Slope trial 1st ([1]; inhibitor conc. 4.1152 nM)	Activity, Slope trial 2nd ([1]; inhibitor conc. 4.1152 nM)	Activity, Slope trial 3rd ([1]; inhibitor conc. 4.1152 nM)	Average Slope ([1]; inhibitor conc. 4.1152 nM)	Activity, Slope trial 1st ([1]; inhibitor conc. 12.3456 nM)	Activity, Slope trial 2nd ([1]; inhibitor conc. 12.3456 nM)	Activity, Slope trial 3rd ([1]; inhibitor conc. 12.3456 nM)	Average Slope ([1]; inhibitor conc. 12.3456 nM)	Activity, Slope trial 1st ([1]; inhibitor conc. 37.037 nM)	Activity, Slope trial 2nd ([1]; inhibitor conc. 37.037 nM)	Activity, Slope trial 3rd ([1]; inhibitor conc. 37.037 nM)	Average Slope ([1]; inhibitor conc. 37.037 nM)	Activity, Slope trial 1st ([1]; inhibitor conc. 111.1111 nM)	Activity, Slope trial 2nd ([1]; inhibitor conc. 111.1111 nM)	also measured
C=C[C@@H]1C[C@]1(NC(=O)[C@@H]1C[C@@H](Oc2ncc(OC)c3ccc(Cl)cc23)CN1C(=O)[C@@H](NC(=O)OC(C)(C)C)C(C)(C)C)C(=O)NS(=O)(=O)C1CC1 [Asunaprevir]	68.3	–	–	–	–	–	–	–	–	–	–	–	–	–	–	–	–	–	–	–	–
COc1ccc2c(O[C@@H]3C[C@H]4C(=O)N[C@]5(C(=O)O)C[C@H]5/C=C\CCCCC[C@H](NC(=O)OC5CCCC5)C(=O)N4C3)cc(-c3csc(NC(C)C)n3)nc2c1 [Ciluprevir]	53.2	–	–	–	–	–	–	–	–	–	–	–	–	–	–	–	–	–	–	–	–
CC(C)(C)OC(=O)N[C@H]1CCCCC/C=C\[C@@H]2C[C@@]2(C(=O)NS(=O)(=O)C2CC2)NC(=O)[C@@H]2C[C@@H](OC(=O)N3Cc4cccc(F)c4C3)CN2C1=O [Danoprevir]	25.1	0.0146 (≈ 0.0199 µM)	1.677	2.153	9.123	4.31	1.449	1.834	9.072	4.11	0.991	0.979	5.934	2.63	0.450	0.460	2.283	1.06	0.196	0.174	Activity, Slope trial 3rd ([1]; inhibitor conc. 111.1111 nM): 0.757; Average Slope ([1]; inhibitor conc. 111.1111 nM): 0.37; Activity, Slope trial 1st ([1]; inhibitor conc. 333.3333 nM): 0; Activity, Slope trial 2nd ([1]; inhibitor conc. 333.3333 nM): 0.039; Activity, Slope trial 3rd ([1]; inhibitor conc. 333.3333 nM): 0.003151; Average Slope ([1]; inhibitor conc. 333.3333 nM): 0.01; Activity, Slope trial 1st ([1]; inhibitor conc. 1000 nM): 0; Activity, Slope trial 2nd ([1]; inhibitor conc. 1000 nM): 0; Activity, Slope trial 3rd ([1]; inhibitor conc. 1000 nM): 0; Average Slope ([1]; inhibitor conc. 1000 nM): 0
O=c1oc2c(O)c(O)cc3c(=O)oc4c(O)c(O)cc1c4c23 [Ellagic acid]	–	–	–	–	–	–	–	–	–	–	–	–	–	–	–	–	–	–	–	–	IC50 ([1]; commercially obtained pure compound, hesperidin 1230 to 1.67 µg/mL, read-out: IC50 value (pure natural compound) (converted)): 98000 nM
CCC[C@H](NC(=O)[C@@H]1[C@H]2CCC[C@H]2CN1C(=O)[C@@H](NC(=O)[C@@H](NC(=O)c1cnccn1)C1CCCCC1)C(C)(C)C)C(=O)C(=O)NC1CC1 [Telaprevir]	69.9	0.0387 (≈ 0.0569 µM)	4.176	2.087	2.395	2.88	4.77	3.604	1.309	3.22	3.041	1.613	2.131	2.26	3.796	1.828	1.004	2.20	1.774	1.116	Activity, Slope trial 3rd ([1]; inhibitor conc. 111.1111 nM): 0.627; Average Slope ([1]; inhibitor conc. 111.1111 nM): 1.17; Activity, Slope trial 1st ([1]; inhibitor conc. 333.3333 nM): 0.5776; Activity, Slope trial 2nd ([1]; inhibitor conc. 333.3333 nM): 0.3406; Activity, Slope trial 3rd ([1]; inhibitor conc. 333.3333 nM): 0.163; Average Slope ([1]; inhibitor conc. 333.3333 nM): 0.36; Activity, Slope trial 1st ([1]; inhibitor conc. 1000 nM): 1.246; Activity, Slope trial 2nd ([1]; inhibitor conc. 1000 nM): 0.081; Activity, Slope trial 3rd ([1]; inhibitor conc. 1000 nM): 0; Average Slope ([1]; inhibitor conc. 1000 nM): 0.44
depsipeptide substrate Ac-Asp-Glu-Asp-(EDANS)-Glu-Glu-Abu-ψ-[COO]-Ala-Ser-Lys(DABCYL)-NH2	–	–	–	–	–	–	–	–	–	–	–	–	–	–	–	–	–	–	–	–	Km of cleavage of the depsipeptide substrate by NS3-NS4A (0.5 nM) in the FRET protease assay, Michaelis-Menten fit [2]: 8.79 µM

Reference: article PMC8976278, “Hesperidin identified from Citrus extracts potently inhibits HCV genotype 3a NS3 protease” (BMC Complementary Medicine and Therapies, 2022)
